Tested on: CD1 female mouse brain lipidome
Assay: Brain-region lipid levels (HPLC/MS/MS lipidomics) 2 h after single i.p. 3 mg/kg CP 55,940 vs vehicle
Type: in vivo
Parameters: N-arachidonoyl phenylalanine level, Mean / N-stearoyl tryptophan level, Mean / N-stearoyl proline level, Mean / N-stearoyl leucine level, Mean / N-stearoyl phenylalanine level, Mean / N-stearoyl serine level, Mean / N-stearoyl methionine level, Mean: unit: moles per gram
Experimental: The Bloomington Institutional Animal Care and Use Committee of Indiana University reviewed and approved the animal procedures. Female mice from the CD1 strain were utilized to match our study examining THC’s effects on the brain lipidome ([Leishman et al., 2018]). Mice were given a single i.p. injection of either 3 mg/kg CP or 1:1:18 cremophor:ethanol:saline vehicle (please refer to the section “3 mg/kg CP Is Relevant for Synthetic Cannabinoid Abuse and Has Stronger Effects on the Female Mouse Brain Lipidome During Adolescence” for a justification of dose and use of female mice). Three different age groups were given injections: PND 35 and PND 50 adolescents, and adult mice (PND 113). At least eight mice in each age group received CP and at least eight received vehicle. Matching the THC study time course ([Leishman et al., 2018]), mice were sacrificed via rapid decapitation 2 h after injection. Brains were immediately removed and flash-frozen in liquid nitrogen, and then stored at -80°C until dissections were performed. Brains were dissected on an ice-cold dissection plate into the following regions: STR, HIPP, CER, THAL, CTX, HYP, MID, and STEM. These abbreviations for these brain areas will be used exclusively when discussing the results generated by these specific dissections. Each dissected area was immediately placed in liquid nitrogen and then stored at -80°C until used for lipid extraction.
Tissue extracts were performed as previously described ([Bradshaw et al., 2006]; [Stuart et al., 2013]; [Raboune et al., 2014]; [Leishman et al., 2016a],[b], [2017], [2018]). First, samples were shock frozen in liquid nitrogen, weighed, and transferred to a centrifuge tube. The mass of the largest sample was multiplied by 50 to determine how many milliliters of HPLC-grade methanol (Fisher, Fair Lawn, NJ, United States) to add. Then, samples were spiked with 500 pmol deuterium-labeled NAGly (d8NAGly; Cayman Chemical, Ann Arbor, MI, United States). Samples were placed on ice in darkness for 2 h then individually homogenized and centrifuged at 19,000 × g for 20 min at 20°C. Supernatants were diluted with HPLC water (purified in house) to make a solution of 75% water, 25% supernatant. Lipids were partially purified on C18 solid phase extraction columns (Agilent, Palo Alto, CA, United States). A series of four elutions with 1.5 mL of 60%, 75%, 85%, and 100% methanol were collected ([Stuart et al., 2013]; [Leishman et al., 2016a],[b], [2018]).
As previously described ([Bradshaw et al., 2006]; [Tan et al., 2006]; [Smoum et al., 2010]; [Stuart et al., 2013]; [Tortoriello et al., 2013]; [Raboune et al., 2014]; [Leishman et al., 2016a],[b], [2017], [2018]), samples were analyzed using an Applied Biosystems API 3000 triple quadrupole mass spectrometer with electrospray ionization (Foster City, CA, United States). Using an Agilent XDB-C18 reversed phase analytical column and optimized mobile phase gradients, 20 μL from each elution were chromatographed. Two Shimadzu 10ADvp pumps (Columbia, MD, United States) provided the pressure for gradient elution. Mobile phase A: 20% methanol, 80% water (v/v) and 1 mM ammonium acetate (Sigma, St. Louis, MO, United States). Mobile phase B: 100% methanol, 1 mM ammonium acetate. Every method run began with 0% mobile phase B, reached 100% mobile phase B flowing at 0.2 mL/min, and gradually returned to 0% mobile phase B.
This screening library will be referred to as the lipidome when discussing data from this study. HPLC/MS/MS data were analyzed using Analyst software (Applied Biosystems) ([Bradshaw et al., 2006]; [Tan et al., 2006]; [Stuart et al., 2013]; [Tortoriello et al., 2013]; [Raboune et al., 2014]; [Leishman et al., 2016a],[b], [2017], [2018]). Chromatograms (Supplementary Figure 3) were generated by determining the retention time of analytes from the analytical column with a [M-1] or [M+1] parent peak and a fragmentation peak corresponding to the programmed values. […]

[1] = cerebellum, PND 35, 3 mg/kg CP 55,940
[2] = cerebellum, PND35 WT female mice, 3mg/kg CP 55,940
[3] = cortex, PND 50, 3 mg/kg CP 55,940

CCCCCCC(C)(C)c1ccc([C@@H]2C[C@H](O)CC[C@H]2CCCO)c(O)c1 [CP 55,940]
N-oleoyl phenylalanine: Magnitude (x Veh level) [1]: 1.14 x Veh level | N-palmitoyl leucine: Direction (relative to Veh) [1]: ↑ | N-palmitoyl leucine: Magnitude (x Veh level) [1]: 1.52 x Veh level | N-palmitoyl phenylalanine: Direction (relative to Veh) [1]: ↑ | N-palmitoyl phenylalanine: Magnitude (x Veh level) [1]: 1.43 x Veh level | N-palmitoyl proline: Direction (relative to Veh) [1]: ↓ | N-palmitoyl proline: Magnitude (x Veh level) [1]: 0.87 x Veh level | N-palmitoyl serine: Direction (relative to Veh) [1]: ↓ | N-palmitoyl serine: Magnitude (x Veh level) [1]: 0.81 x Veh level | N-palmitoyl tyrosine: Direction (relative to Veh) [1]: ↑ | N-palmitoyl tyrosine: Magnitude (x Veh level) [1]: 1.19 x Veh level | N-palmitoyl valine: Direction (relative to Veh) [1]: ↑ | N-palmitoyl valine: Magnitude (x Veh level) [1]: 1.70 x Veh level | 2-arachidonoyl glycerol level, Mean [2]: 2.68E-10 | 2-linoleoyl glycerol level, Mean [2]: 1.01E-10 | 2-oleoyl glycerol level, Mean [2]: 7.55E-10 | 2-palmitoyl glycerol level, Mean [2]: 3.01E-10 | 6-ketoPGF1α level, Mean [2]: 8.74E-12 | 11-OH-THC level, Mean [2]: BDL | 11-nor-9-carboxyTHC level, Mean [2]: BDL | Arachidonic acid level, Mean [2]: 1.26E-09 | Cannabidiol level, Mean [2]: BDL | Linoleic acid level, Mean [2]: 4.27E-10 | N- stearoyl valine level, Mean [2]: PISSR | N-arachidonoyl GABA level, Mean [2]: 9.02E-12 | N-arachidonoyl alanine level, Mean [2]: 5.29E-12 | N-arachidonoyl dopamine level, Mean [2]: BDL | N-arachidonoyl ethanolamine level, Mean [2]: 1.17E-11 | N-arachidonoyl glycine level, Mean [2]: 2.55E-11 | N-arachidonoyl methionine level, Mean [2]: 8.56E-13 | N-arachidonoyl phenylalanine level, Mean [2]: 1.22E-12 | N-arachidonoyl proline level, Mean [2]: BDL | N-arachidonoyl serine level, Mean [2]: 5.34E-12 | N-arachidonoyl taurine level, Mean [2]: 7.17E-11 | N-arachidonoyl tryptophan level, Mean [2]: PISSR | N-arachidonoyl tyrosine level, Mean [2]: 8.32E-13 | N-docosahexaenoyl GABA level, Mean [2]: 2.27E-12 | N-docosahexaenoyl alanine level, Mean [2]: 3.11E-12 | N-docosahexaenoyl ethanolamine level, Mean [2]: 2.05E-11 | N-docosahexaenoyl glycine level, Mean [2]: 1.34E-11 | N-docosahexaenoyl leucine level, Mean [2]: 7.43E-13 | N-docosahexaenoyl methionine level, Mean [2]: 5.43E-13 | N-docosahexaenoyl phenylalanine level, Mean [2]: 1.05E-12 | N-docosahexaenoyl proline level, Mean [2]: BDL | N-docosahexaenoyl serine level, Mean [2]: 2.79E-11 | N-docosahexaenoyl tryptophan level, Mean [2]: PISSR | N-docosahexaenoyl tyrosine level, Mean [2]: 1.57E-12 | N-docosahexaenoyl valine level, Mean [2]: BDL | N-linoleoyl GABA level, Mean [2]: 7.16E-13 | N-linoleoyl alanine level, Mean [2]: 1.26E-12 | N-linoleoyl ethanolamine level, Mean [2]: 2.95E-11 | N-linoleoyl glycine level, Mean [2]: 3.27E-12 | N-linoleoyl leucine level, Mean [2]: 3.65E-13 | N-linoleoyl methionine level, Mean [2]: PISSR | N-linoleoyl phenylalanine level, Mean [2]: 2.56E-13 | N-linoleoyl proline level, Mean [2]: BDL | N-linoleoyl serine level, Mean [2]: 4.55E-11 | N-linoleoyl tryptophan level, Mean [2]: PISSR | N-linoleoyl tyrosine level, Mean [2]: PISSR | N-linoleoyl valine level, Mean [2]: BDL | N-nervonoyl valine level, Mean [2]: BDL | N-oleoyl GABA level, Mean [2]: 3.82E-12 | N-oleoyl alanine level, Mean [2]: 6.55E-12 | N-oleoyl dopamine level, Mean [2]: BDL | N-oleoyl ethanolamine level, Mean [2]: 7.98E-11 | N-oleoyl glycine level, Mean [2]: 1.52E-11 | N-oleoyl leucine level, Mean [2]: 1.49E-12 | N-oleoyl methionine level, Mean [2]: 1.2E-12 | N-oleoyl phenylalanine level, Mean [2]: 1.43E-12 | N-oleoyl proline level, Mean [2]: 3.42E-13 | N-oleoyl serine level, Mean [2]: 2.53E-10 | N-oleoyl tryptophan level, Mean [2]: 1.48E-13 | N-oleoyl tyrosine level, Mean [2]: 7.24E-13 | N-oleoyl valine level, Mean [2]: PISSR | N-palmitoyl GABA level, Mean [2]: 7.17E-12 | N-palmitoyl alanine level, Mean [2]: 7.87E-12 | N-palmitoyl ethanolamine level, Mean [2]: 3.88E-11 | N-palmitoyl glycine level, Mean [2]: 2.65E-11 | N-palmitoyl leucine level, Mean [2]: 2.75E-12 | N-palmitoyl methionine level, Mean [2]: 1.86E-12 | N-palmitoyl phenylalanine level, Mean [2]: 2.82E-12 | N-palmitoyl proline level, Mean [2]: 7E-13 | N-palmitoyl serine level, Mean [2]: 5.23E-11 | N-palmitoyl tryptophan level, Mean [2]: 3.12E-13 | N-palmitoyl tyrosine level, Mean [2]: 1.58E-12 | N-palmitoyl valine level, Mean [2]: 1.73E-13 | N-stearoyl GABA level, Mean [2]: 5.88E-12 | N-stearoyl alanine level, Mean [2]: 1.31E-11 | N-stearoyl ethanolamine level, Mean [2]: 1.11E-11 | N-stearoyl glycine level, Mean [2]: 1.37E-11 | N-stearoyl leucine level, Mean [2]: 9.56E-13 | N-stearoyl methionine level, Mean [2]: 1.59E-12 | N-stearoyl phenylalanine level, Mean [2]: 1.92E-12 | N-stearoyl proline level, Mean [2]: 3.97E-13 | N-stearoyl serine level, Mean [2]: 2.93E-11 | N-stearoyl tryptophan level, Mean [2]: 6.79E-13 | N-stearoyl tyrosine level, Mean [2]: 8.44E-14 | Oleic acid level, Mean [2]: 1.03E-09 | PGE2 level, Mean [2]: 4.01E-10 | PhosphoLEA level, Mean [2]: 1.04E-11 | THC level, Mean [2]: BDL | 2-linoleoyl glycerol Direction (relative to Veh) [3]: ↓ | 2-oleoyl glycerol, Direction (relative to Veh) [3]: ↓

From article PMC6277767, “Broad and Region-Specific Impacts of the Synthetic Cannabinoid CP 55,940 in Adolescent and Adult Female Mouse Brains” (Frontiers in Molecular Neuroscience, 2018)
